Common to all, as to type: in vitro ADME
One data set has as its system human liver microsomes. On the procedure:
Livers were obtained from organ donors according to procedures is approved by the University of Queensland ethics committees. Samples of human liver were frozen in liquid nitrogen and stored at −70° C. prior to use. Microsomes were prepared according to the method of Guengerich except that microsomes were subjected to a final wash in 10 mM Tris-acetate, 1 mM EDTA and 20% glycerol pH 7.4 (resuspension buffer) to remove residual drugs (e.g. phenytoin—data not shown) present in donor livers.
Incubations (0.5 mL) with tissue fractions contained either the microsomal fraction at […] or the cytosolic fraction at 5 mg/mL protein in 100 mM potassium phosphate (pH 7.4) supplemented with is substrates (synthetic alkylamides 6, 11, 3 and 12 or the alkylamide fraction from the ethanolic liquid as required—see Figure legends for concentrations used) added from ethanolic stocks. Final ethanol concentrations were either 0.70% or 0.96% and were consistent in each assay. Reactions were initiated by the addition of an NADPH-generating system consisting of (final concentrations) […] NADP+, 10 mM glucose-6-phosphate and 0.5 μ/mL glucose-6-phosphate dehydrogenase. Negative controls and cytosolic incubations lacked an NADPH-generating system. Reaction mixtures were incubated at 37° C. with gentle agitation for the duration of each experiment. Reactions were terminated by addition of an equal volume of 100% methanol to a sample aliquot. Diluted samples were then centrifuged at 16000×g for 2 minutes and supernatants stored at −20° C. until analysis by LCMS.
Alkylamide concentrations in samples were determined by LCMS using a gradient HPLC system (Shimadzu LC1OAT) coupled to a quadrupole mass spectrometer (Shimadzu, QP8000a) operating in positive SIM mode with an APCI interface. The mobile phases were a mixture of water and acetonitrile. Alkylamides 6 and 3 were detected using a 65% acetonitrile isocratic run. Alkylamides 11 and 12 were detected using an 85% acetonitrile isocratic run. The alkylamide fraction was analysed using a gradient that increased from 20% to 40% acetonitrile over the first 5 minutes, then to 80% acetonitrile over the following 15 minutes and to 100% over the next 3 minutes followed by a re-equilibration period at 20% acetonitrile prior to the next injection. A similar gradient was used in scan and then SIM (M+1 of 248, 264, 246, 192, 280 and 282) modes to identify metabolites of 3. A C18, 3 m, 100×2.00 mm Phenomenex Luna column was used with a solvent flow rate of 0.3 mL/minute. All alkylamides were linear in the range 0.001-10 mg/mL (R^2>0.9) with a coefficient of variation between 4 and 5.
A number of pure, synthetic alkylamides (6, 11 3 and 12 as shown in FIG. 1) as well as the complex mixture of alkylamides obtained from an ethanolic extract of Echinacea were investigated for their susceptibility to liver P450-mediated degradation in microsomal preparations from four different subjects. The concentration of each substrate remaining at the given time points was quantified with LCMS and rates of substrate depletion were calculated as a percentage of the original concentration. […] From FIG. 3 it can be seen that there was a clear difference in the ability of the liver microsomal P450s to metabolise the synthetic 2-ene and the 2,4-diene alkylamides. […] In contrast, the 2,4-dienes were rapidly metabolised with only 9±2% of the original concentration of 3 and 2±1% of the original concentration of 12 detected after 2 hours. […]

In a further data set the test system is liver P450. Kind of data set: inhibition of 2,4-diene alkylamide metabolism by co-incubation with a 2-ene alkylamide in human liver microsomes. The following applies: co-incubation of 3 with 6 at equimolar concentrations, 90 minutes.
In another data set the target is T1, P450 2A13 (Homo sapiens, UniProt Q16696).
T1 construct: made in house; host or cells: Escherichia coli, bacterial membrane fraction
T1 sequence (Q16696 1-494): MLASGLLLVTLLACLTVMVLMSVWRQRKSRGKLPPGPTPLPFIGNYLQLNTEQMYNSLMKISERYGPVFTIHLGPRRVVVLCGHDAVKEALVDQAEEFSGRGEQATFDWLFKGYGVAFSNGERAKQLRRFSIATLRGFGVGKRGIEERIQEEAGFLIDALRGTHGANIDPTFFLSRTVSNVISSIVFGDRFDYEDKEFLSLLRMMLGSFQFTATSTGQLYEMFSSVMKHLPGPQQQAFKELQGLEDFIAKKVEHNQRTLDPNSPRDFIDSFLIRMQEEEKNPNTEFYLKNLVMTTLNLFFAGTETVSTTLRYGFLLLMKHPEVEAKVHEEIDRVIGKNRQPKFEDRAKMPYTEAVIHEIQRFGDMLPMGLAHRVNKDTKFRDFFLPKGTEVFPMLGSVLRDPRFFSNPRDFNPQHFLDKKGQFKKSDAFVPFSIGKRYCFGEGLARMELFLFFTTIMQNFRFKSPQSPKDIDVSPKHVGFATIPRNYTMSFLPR
Kind of data set: metabolism of 3 by recombinant human P450. The following applies: recombinant P450 2A13, preliminary screen.

Experimental for liver P450: Compound 3 was present at 20 μM in all experiments while 6 was present at (●) 0, (∘) 0.22, (▪) 2.2, ( ) 5.5, (▴) 9.0 and (Δ) 20 uM. Each point represents the mean for one microsomal preparation examined in duplicate. The deviation was less than 15 for each point.
Incubations (0.5 mL) with tissue fractions contained either the microsomal fraction at 0.1-0.2 mM P450 or the cytosolic fraction at 5 mg/mL protein in 100 mM potassium phosphate (pH 7.4) supplemented with is substrates (synthetic alkylamides 6, 11, 3 and 12 or the alkylamide fraction from the ethanolic liquid as required—see Figure legends for concentrations used) added from ethanolic stocks. Final ethanol concentrations were either 0.70% or 0.96% and were consistent in each assay. Reactions were initiated by the addition of an NADPH-generating system consisting of (final concentrations) 250 mM NADP+, 10 mM glucose-6-phosphate and 0.5 μ/mL glucose-6-phosphate dehydrogenase. Negative controls and cytosolic incubations lacked an NADPH-generating system. Reaction mixtures were incubated at 37° C. with gentle agitation for the duration of each experiment. Reactions were terminated by addition of an equal volume of 100% methanol to a sample aliquot. Diluted samples were then centrifuged at 16000×g for 2 minutes and supernatants stored at −20° C. until analysis by LCMS.

With `C/C=C\C=C/CC/C=C/C=C/C(=O)NCC(C)C` [alkylamide 3, (2E,4E,8Z,10Z)—N-isobutyldodeca-2,4,8,10-tetraenamide], the “rate of alkylamide metabolism relative to the rate found for 6” value in the data set with human liver microsomes is on record as “seven fold higher”. Besides, the “% of initial levels still present” value in the data set with human liver microsomes (human, 2 h, pH 7.4) stood at 66±26%. The “% of the original concentration of 3 detected” value with liver P450 was determined as 83±4%. Also, the “consumption of 3” value on P450 2A13 is on record as “observed”.

Source of the values: patent US9205121B2, “Echinacea formulation” (Integria Healthcare (Australia) PTY LTD, priority 2004, dated 2015).
